Laboratory results published in US9783536B2, “Nitrogen-containing heterocyclic compound or salt thereof” (FUJIFILM Corporation, priority 2013, dated 2017).
Like-named read-outs stand apart in the source and are kept apart here.

Assays:
CHO-K1 cells = assay: CHO cell toxicity test; assay type: cell-based, Chinese hamster; conditions: Cricetulus griseus, read-out: IC50 value (concentration at which the number of viable cells was suppressed to 50% or less)
Protocol: In a CHO cell toxicity test, the following was used.
Cell: CHO-K1 cells (derived from Chinese hamster ovary) Test medium: F-12 MEDIUM+FCS (manufactured by Biowest) having a final concentration of 2%
Detection reagent: CELLTITER-GLO™ LUMINESCENT CELL VIABILITY ASSAY (trade name, manufactured by PROMEGA Corporation)
The CHO-K1 cells were seeded in a 96-well microplate for culture at 5,000 cells/well, and cultured in a CO2 incubator (37° C.) for 24 hours. An evaluation compound (final concentration: from 25.00 μmol/L to 0.20 μmol/L, common ratio: […]) was added thereto, followed by culturing for 24 hours, and the number of viable cells was calculated from emission intensity by CELLTITER-GLO™ (trade name, manufactured by PROMEGA Corporation). In the measurement of the emission intensity, VARIOSKAN FLASH (manufactured by Thermo Fisher Scientific Inc.) was used.
Inhibition ratio (%)=100−(A/B)×100
A: Emission intensity in the presence of a test compound
B: Emission intensity in the absence of a test compound

human PI3Kα protein = target: T1, human PI3Kα protein (Homo sapiens, UniProt P42336); assay: PI3Kα enzyme assay (ADP-Glo); assay type: biochemical; conditions: read-out: PI3Kα enzyme inhibitory activity
T1 construct: purchased Carna Biosciences, Inc; host or cells: baculovirus expression system
T1 sequence (P42336 whole entry): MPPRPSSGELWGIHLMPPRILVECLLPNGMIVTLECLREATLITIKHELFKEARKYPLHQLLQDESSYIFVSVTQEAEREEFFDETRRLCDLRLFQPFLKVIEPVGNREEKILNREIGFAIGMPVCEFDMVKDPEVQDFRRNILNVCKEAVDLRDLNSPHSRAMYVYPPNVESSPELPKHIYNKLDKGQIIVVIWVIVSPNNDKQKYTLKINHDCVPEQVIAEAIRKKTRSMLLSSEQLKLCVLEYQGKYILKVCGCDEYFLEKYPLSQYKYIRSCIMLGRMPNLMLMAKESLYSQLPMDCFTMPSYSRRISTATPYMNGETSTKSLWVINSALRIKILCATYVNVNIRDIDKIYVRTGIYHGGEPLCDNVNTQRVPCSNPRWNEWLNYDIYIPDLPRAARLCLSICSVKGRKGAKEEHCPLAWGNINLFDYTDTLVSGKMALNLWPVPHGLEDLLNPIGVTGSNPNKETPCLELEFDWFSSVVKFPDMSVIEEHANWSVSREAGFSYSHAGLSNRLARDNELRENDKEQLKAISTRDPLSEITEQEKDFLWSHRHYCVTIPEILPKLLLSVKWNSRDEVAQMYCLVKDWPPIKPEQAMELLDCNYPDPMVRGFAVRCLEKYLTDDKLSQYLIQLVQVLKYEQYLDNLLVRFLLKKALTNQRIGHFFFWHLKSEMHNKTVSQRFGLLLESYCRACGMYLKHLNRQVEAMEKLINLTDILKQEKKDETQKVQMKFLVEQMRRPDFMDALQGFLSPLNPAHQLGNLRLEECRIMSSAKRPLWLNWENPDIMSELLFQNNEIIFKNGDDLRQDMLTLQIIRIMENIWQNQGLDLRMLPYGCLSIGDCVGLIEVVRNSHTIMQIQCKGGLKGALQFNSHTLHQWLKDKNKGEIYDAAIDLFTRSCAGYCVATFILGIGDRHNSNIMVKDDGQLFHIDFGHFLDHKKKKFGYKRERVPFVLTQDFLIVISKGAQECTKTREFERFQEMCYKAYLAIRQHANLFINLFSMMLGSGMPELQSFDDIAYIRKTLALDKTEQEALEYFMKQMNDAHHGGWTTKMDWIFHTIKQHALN
T1 sequence (P27986 whole entry partner): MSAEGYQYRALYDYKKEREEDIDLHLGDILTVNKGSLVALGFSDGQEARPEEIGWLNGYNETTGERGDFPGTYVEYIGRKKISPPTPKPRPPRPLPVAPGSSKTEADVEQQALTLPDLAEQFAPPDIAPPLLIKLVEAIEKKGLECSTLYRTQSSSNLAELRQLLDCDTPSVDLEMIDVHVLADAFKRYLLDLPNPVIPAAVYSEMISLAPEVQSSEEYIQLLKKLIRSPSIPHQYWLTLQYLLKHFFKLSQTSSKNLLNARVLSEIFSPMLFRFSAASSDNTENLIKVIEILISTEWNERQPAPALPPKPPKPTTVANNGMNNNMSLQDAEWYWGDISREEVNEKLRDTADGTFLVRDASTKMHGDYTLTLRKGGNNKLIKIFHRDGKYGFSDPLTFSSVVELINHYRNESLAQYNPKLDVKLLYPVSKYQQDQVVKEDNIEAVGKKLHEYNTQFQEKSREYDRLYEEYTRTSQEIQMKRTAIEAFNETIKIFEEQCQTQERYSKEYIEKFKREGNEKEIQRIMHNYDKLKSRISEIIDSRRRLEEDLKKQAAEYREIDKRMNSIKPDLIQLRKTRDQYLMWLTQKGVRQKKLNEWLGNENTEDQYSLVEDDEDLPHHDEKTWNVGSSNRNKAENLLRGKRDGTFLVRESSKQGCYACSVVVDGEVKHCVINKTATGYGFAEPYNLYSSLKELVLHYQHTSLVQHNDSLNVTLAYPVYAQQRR
How it was run: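 Biotinylated human PI3Kα (baculovirus-expressed, 4.5 nmol/L) pre-incubated 15 min with compound in Tris-HCl pH 7.5, MgCl2, BSA; reaction 60 min at 25° C with 50 μmol/L PIP2 and 100 μmol/L ATP final. ADP quantified by ADP-Glo luminescence; IC50 calculated.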

[1] = target: T2, GST fusion human ERK2 protein (Homo sapiens, UniProt P28482); assay: ERK2 enzyme assay (2); assay type: biochemical; conditions: read-out: ERK2 enzyme inhibitory activity (2)
T2 construct: purchased Carna Biosciences, Inc; host or cells: E. coli expression system
T2 sequence (P28482 whole entry, the tested form may be a part): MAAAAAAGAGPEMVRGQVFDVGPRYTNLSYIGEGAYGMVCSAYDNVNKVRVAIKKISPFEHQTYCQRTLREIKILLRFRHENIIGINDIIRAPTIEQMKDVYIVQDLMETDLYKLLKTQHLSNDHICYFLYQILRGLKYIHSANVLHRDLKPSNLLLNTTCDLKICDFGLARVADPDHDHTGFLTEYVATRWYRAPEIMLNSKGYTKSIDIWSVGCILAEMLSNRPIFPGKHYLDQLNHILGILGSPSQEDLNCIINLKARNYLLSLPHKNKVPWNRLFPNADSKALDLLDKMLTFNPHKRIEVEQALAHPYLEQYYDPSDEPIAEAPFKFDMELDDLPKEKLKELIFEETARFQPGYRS
How it was run: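 IC50 values come from mobility-shift measurement of phosphorylated versus unphosphorylated 5-FAM peptide substrate after EDTA quench. Beforehand, compound and 1.25 nmol/L E. coli-expressed GST–human ERK2 stood 15 min at room temperature (pH 7.5), then 1 mmol/L ATP and 4.25 μmol/L substrate (final) were added for 120 min at 25 °C.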

[2] = CHO-K1 cells, 24 hours culture with compound, CellTiter-Glo

Structure (SMILES) | IC50 (human PI3Kα protein) | IC50 ([1]; ERK2 enzyme assay (2)) | IC50 [1] | IC50 (CHO-K1 cells; [2]) | IC50 (CHO-K1 cells; CHO-K1, 24 h)
CC(C)c1cnnc(Nc2ccc3ncc(-c4cn(C)nc4CC4CC4)cc3n2)c1 [Example 0781] | < 1000 nM | < 1000 nM | – | – | ≥ 25000 nM
CC(C)c1cnnc(Nc2ccc3ncc(-c4cnn(CCCN5CCOCC5CO)c4)cc3n2)c1 (stereo not drawn) [Example 0685] | < 1000 nM | < 1000 nM | – | ≥ 25000 nM | –
CC(C)c1cnnc(Nc2ccc3ncc(-c4cnn(CC5CCN(C)CC5)c4)cc3n2)c1 [Example 0486, N-(5-isopropylpyridazin-3-yl)-7-(1-((1-methylpiperidin-4-yl)methyl)-1H-pyrazol-4-yl)-1,5-naphthyridine-2-amine] | < 1000 nM | < 1000 nM | – | ≥ 25000 nM | –
CC(C)c1cnnc(Nc2ccc3ncc(-c4cnn(CC5CN(S(C)(=O)=O)C5)c4)cc3n2)c1 [Example 0572, N-(5-isopropylpyridazin-3-yl)-7-(1-((1-(methylsulfonyl)azetidin-3-yl)methyl)-1H-pyrazol-4-yl)-1,5-naphthyridine-2-amine] | < 1000 nM | < 1000 nM | – | ≥ 25000 nM | –
CC(C)c1cnnc(Nc2ccc3ncc(-n4ccnc4)cc3n2)c1 [Example 0510, 7-(1H-imidazol-1-yl)-N-(5-isopropylpyridazin-3-yl)-1,5-naphthyridine-2-amine] | 1000 to 10000 nM | < 1000 nM | – | ≥ 25000 nM | –
CC(C)c1cnnc(Nc2ccc3ncc(-c4cnn(CC5CCOCC5)c4)cc3n2)c1 [Example 0482] | < 1000 nM | < 1000 nM | – | ≥ 25000 nM | –
CC(C)c1cnnc(Nc2ccc3ncc(-c4cnn(CC5CCN(S(C)(=O)=O)CC5)c4)cc3n2)c1 [Example 0530] | < 1000 nM | < 1000 nM | – | ≥ 25000 nM | –
CC(C)c1cnnc(Nc2ccc3ncc(-c4cnn(CCCN5CCOC[C@@H]5C)c4)cc3n2)c1 [Example 0650] | < 1000 nM | < 1000 nM | – | ≥ 25000 nM | –
CC(=O)NC1CN(CCCn2cc(-c3cnc4ccc(Nc5cc(C(C)C)cnn5)nc4c3)cn2)C1 [Example 0682, N-(1-(3-(4-(6-((5-isopropylpyridazin-3-yl)amino)-1,5-naphthyridin-3-yl)-1H-pyrazol-1-yl)propyl)azetidin-3-yl)acetamide] | < 1000 nM | < 1000 nM | – | ≥ 25000 nM | –
CC(C)c1cnnc(Nc2ccc3ncc(-c4cnn(CCCN5CC6CCC(C5)O6)c4)cc3n2)c1 [Example 0653, 7-(1-(3-(8-Oxa-3-azabicyclo[3.2.1]octan-3-yl)propyl)-1H-pyrazol-4-yl)-N-(5-isopropylpyridazin-3-yl)-1,5-naphthyridine-2-amine] | < 1000 nM | < 1000 nM | – | ≥ 25000 nM | –
CC(C)c1cnnc(Nc2ccc3ncc(-c4cnn(C5CCN(S(C)(=O)=O)CC5)c4)cc3n2)c1 [Example 0479] | < 1000 nM | < 1000 nM | – | ≥ 25000 nM | –
CC(C)c1cnnc(Nc2ccc3ncc(-c4cnn(CCCN5CCC(F)CC5)c4)cc3n2)c1 [Example 0413, 7-(1-(3-(4-Fluoropiperidin-1-yl)propyl)-1H-pyrazol-4-yl)-N-(5-isopropylpyridazin-3-yl)-1,5-naphthyridine-2-amine] | < 1000 nM | < 1000 nM | – | ≥ 25000 nM | –
COCC1CN(CCCn2cc(-c3cnc4ccc(Nc5cc(C(C)C)cnn5)nc4c3)cn2)CCO1 (stereo not drawn) [Example 0679] | < 1000 nM | < 1000 nM | – | ≥ 25000 nM | –
CC(C)c1cnnc(Nc2ccc3ncc(-c4cnn(C[C@@H]5CCC(=O)N5C)c4)cc3n2)c1 [Example 0557, (S)-5-((4-(6-((5-isopropylpyridazin-3-yl)amino)-1,5-naphthyridin-3-yl)-1H-pyrazol-1-yl)methyl)-1-methylpyrrolidin-2-one] | < 1000 nM | < 1000 nM | – | ≥ 25000 nM | –
CC(C)c1cnnc(Nc2ccc3ncc(-c4cnn(CCCN5CCO[C@H](C)C5)c4)cc3n2)c1 [Example 0645] | < 1000 nM | < 1000 nM | – | ≥ 25000 nM | –
Cn1cc(-c2cnc3ccc(Nc4cc(C5CCCC5)cnn4)nc3c2)c(CF)n1 [Example 0631, N-(5-cyclopentylpyridazin-3-yl)-7-(3-(fluoromethyl)-1-methyl-1H-pyrazol-4-yl)-1,5-naphthyridine-2-amine] | < 1000 nM | < 1000 nM | – | ≥ 25000 nM | –
CCc1cnnc(Nc2ccc3ncc(-c4cn(C)nc4C)cc3n2)c1 [Example 0756, 7-(1,3-Dimethyl-1H-pyrazol-4-yl)-N-(5-ethylpyridazin-3-yl)-1,5-naphthyridine-2-amine] | < 1000 nM | < 1000 nM | – | ≥ 25000 nM | –

Continued, in another order:

IC50 (human PI3Kα protein) | IC50 ([1]; ERK2 enzyme assay (2)) | IC50 [1] | Structure (SMILES) | IC50 (CHO-K1 cells; [2]) | IC50 (CHO-K1 cells; CHO-K1, 24 h)
< 1000 nM | < 1000 nM | – | CC(C)c1cnnc(Nc2ccc3ncc(-c4cnn(CCCN5CC(C(=O)N(C)C)C5)c4)cc3n2)c1 [Example 0688] | ≥ 25000 nM | –
< 1000 nM | < 1000 nM | – | CC(C)c1cnnc(Nc2ccc3ncc(-c4cnn(CCCN5CC(NS(C)(=O)=O)C5)c4)cc3n2)c1 [Example 0697] | ≥ 25000 nM | –
< 1000 nM | < 1000 nM | – | CC(C)c1cnnc(Nc2ccc3ncc(-c4cnn(CCCN5C[C@@H](C)O[C@@H](C)C5)c4)cc3n2)c1 [Example 0615] | ≥ 25000 nM | –
< 1000 nM | < 1000 nM | – | CC(C)c1cnnc(Nc2ccc3ncc(-c4cnn(CCCN5CCCOCC5)c4)cc3n2)c1 [Example 0665] | ≥ 25000 nM | –
< 1000 nM | < 1000 nM | – | CC(C)c1cnnc(Nc2ccc3ncc(-c4cnn([C@H]5CCN(C)C5)c4)cc3n2)c1 [Example 0492] | ≥ 25000 nM | –
< 1000 nM | < 1000 nM | – | CC(C)c1cnnc(Nc2ccc3ncc(-c4cnn(CCCN5[C@H](C)CCC[C@@H]5C)c4)cc3n2)c1 [Example 0432] | ≥ 25000 nM | –
< 1000 nM | < 1000 nM | – | CC(C)c1cnnc(Nc2ccc3ncc(-c4cnn(CC(F)(F)F)c4)cc3n2)c1 [Example 0460] | ≥ 25000 nM | –
< 1000 nM | < 1000 nM | – | CC(C)c1cnnc(Nc2ccc3ncc(-c4cnn(CCCN5CC(C#N)C5)c4)cc3n2)c1 [Example 0686] | ≥ 25000 nM | –
< 1000 nM | < 1000 nM | – | COC(CN1CCCC1)Cn1cc(-c2cnc3ccc(Nc4cc(C(C)C)cnn4)nc3c2)cn1 (stereo not drawn) [Example 0725, N-(5-isopropylpyridazin-3-yl)-7-(1-(2-methoxy-3-(pyrrolidin-1-yl)propyl)-1H-pyrazol-4-yl)-1,5-naphthyridine-2-amine] | ≥ 25000 nM | –
< 1000 nM | < 1000 nM | – | CC(C)c1cnnc(Nc2ccc3ncc(-c4cnn(CCCN5C[C@@H](C)N[C@@H](C)C5)c4)cc3n2)c1 [Example 0439, 7-(1-(3-((3S,5R)-3,5-dimethylpiperazin-1-yl)propyl)-1H-pyrazol-4-yl)-N-(5-isopropylpyridazin-3-yl)-1,5-naphthyridine-2-amine] | ≥ 25000 nM | –
< 1000 nM | < 1000 nM | – | CC(C)c1cnnc(Nc2ccc3ncc(-c4cnn(CCCN5CCCC5=O)c4)cc3n2)c1 [Example 0422] | ≥ 25000 nM | –
< 1000 nM | < 1000 nM | – | Cc1cc(-c2nn(C)cc2-c2cnc3ccc(Nc4cc(C(C)C)cnn4)nc3c2)ccn1 [Example 0738] | ≥ 25000 nM | –
< 1000 nM | – | < 1000 nM | CCCc1cnnc(Nc2ccc3ncc(-c4cn(C)nc4C)cc3n2)c1 [Example 0919] | ≥ 25000 nM | –
< 1000 nM | < 1000 nM | – | CC(C)c1cnnc(Nc2ccc3ncc(-c4cnn(CCC(C)N5CCOCC5)c4)cc3n2)c1 (stereo not drawn) [Example 0418, N-(5-isopropylpyridazin-3-yl)-7-(1-(3-morpholinobutyl)-1H-pyrazol-4-yl)-1,5-naphthyridine-2-amine] | ≥ 25000 nM | –
< 1000 nM | < 1000 nM | – | CNC(=O)C1CN(CCCn2cc(-c3cnc4ccc(Nc5cc(C(C)C)cnn5)nc4c3)cn2)C1 [Example 0687, 1-(3-(4-(6-((5-Isopropylpyridazin-3-yl)amino)-1,5-naphthyridin-3-yl)-1H-pyrazol-1-yl)propyl)-N-methylazetidine-3-carboxamide] | ≥ 25000 nM | –
< 1000 nM | < 1000 nM | – | CCN(c1cnnc(Nc2ccc3ncc(-c4cnn(C)c4)cc3n2)c1)C(C)C [Example 0500] | ≥ 25000 nM | –
